The record followed here is US8471063B2, “Michael systems as transglutaminase inhibitors” (Zedira GmbH, priority 2006, dated 2013).

*1 amine or outer side, *2 acyl side, *3 side chain or, on linkers, in order; H or OH if unused. Where a SMILES comes first, the peptide text is derived from it. [ ]: non-standard residue; d: D form. The star is where a group is joined. Nle(5E-ene,6-CO2Et) = CCOC(=O)/C=C/CC[C@H](N)C(=O)O; X7 = O=C(/C=C/CC[C@H](N[*:1])C(=O)[*:2])OCc1ccccc1; Tic = O=C(O)[C@@H]1Cc2ccccc2CN1; Cbz = O=C(OCc1ccccc1)*

In the first test the target is T1, recombinant human tissue transglutaminase (His6-rh-TG2) (Homo sapiens, UniProt P21980).
T1 sequence (P21980 1-687): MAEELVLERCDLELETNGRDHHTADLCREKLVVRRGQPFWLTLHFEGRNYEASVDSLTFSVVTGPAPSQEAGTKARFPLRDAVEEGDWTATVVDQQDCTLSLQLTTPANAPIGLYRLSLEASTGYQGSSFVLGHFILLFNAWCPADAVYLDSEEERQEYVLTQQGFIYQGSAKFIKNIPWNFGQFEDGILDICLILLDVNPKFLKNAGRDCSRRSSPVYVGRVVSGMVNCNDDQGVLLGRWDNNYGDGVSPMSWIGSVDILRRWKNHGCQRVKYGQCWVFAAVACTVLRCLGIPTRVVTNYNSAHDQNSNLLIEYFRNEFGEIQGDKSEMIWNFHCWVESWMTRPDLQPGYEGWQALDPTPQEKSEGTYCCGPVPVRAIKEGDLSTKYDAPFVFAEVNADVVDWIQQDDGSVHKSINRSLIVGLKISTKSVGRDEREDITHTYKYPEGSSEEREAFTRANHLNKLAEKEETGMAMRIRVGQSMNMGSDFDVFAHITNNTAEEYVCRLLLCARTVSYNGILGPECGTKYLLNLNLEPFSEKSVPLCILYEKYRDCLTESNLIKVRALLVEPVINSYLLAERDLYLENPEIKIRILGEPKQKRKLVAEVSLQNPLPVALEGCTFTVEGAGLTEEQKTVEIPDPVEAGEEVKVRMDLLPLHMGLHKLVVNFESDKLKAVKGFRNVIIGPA
Put plainly: Inactivation of human tissue transglutaminase, fluorescence assay, IC50. The class given is biochemical. Particulars: Table 1; 5 min preincubation, 37° C. How it is done:
250 μg of lyophilized his-tagged recombinant human tissue transglutaminase (His6-rh-TG2) are reconstituted by the addition of 150 μl of water (resulting buffer 50 mM of NaH2PO4, 150 mM of NaCl, pH=8).
A 10 mM inhibitor stock solution in DMSO is prepared and diluted with buffer (50 mM of Tris-HCl, 10 mM of CaCl2, 5 mM of DTT, pH=7.5, respectively) to the 20-fold of the concentration desired for the inhibition mixture (at least 1/50 dilution resulting in 2% DMSO concentration).
900 μl of an assay solution composed of 55.56 mM of Tris, 11.11 mM of CaCl2, 0.11% PEG8000, 5.56 mM of DTT, 5.56 mM of glycine methyl ester and 50 μM of Abz-APE(CAD-DNP)QEA-OH, (patent number:), pH=7.5 are placed in a cuvette and brought to a temperature of 37° C. in the measuring cell of a spectrophotometer. 50 μl of the respective inhibitor solution are added to said solution (resulting in a concentration of less than 0.2% of DMSO in the mixture).
7 μl of the transglutaminase solution reconstituted above are diluted with 51 μl of buffer (50 mM of Tris, 100 mM of NaCl, 5 mM of DTT, pH=7.5). 50 μl of said enzyme solution (10 μg His6-rhTG2) are added to the assay solution containing the respective inhibitor concentration. The mixture is incubated for 5 min at 37° C. before the measurement is performed. λexc=313 nm and λem=418 nm, 15 min)
The resulting enzyme activity was measured by analyzing the slope of the straight line obtained by the increase in fluorescence.
DMSO is used instead of inhibitor stock solution in order to determine the non-inhibited enzyme activity. IC50 values are determined by plotting the resulting enzyme activity against the logarithm of the inhibitor concentration. IC50 is defined as the concentration of an inhibitor at which enzyme activity is reduced to 50% after 5 min of preincubation.
Consider `CCOC(=O)C=CC(=O)CC[C@H](NC(=O)OCc1ccccc1)C(=O)N[C@H](C(=O)N1CCC[C@H]1C(=O)N[C@@H](CC(C)C)C(=O)OC)C(C)C` [Compound 9, N^α-benzyloxycarbonyl-{[L-7-amino-4-oxo-oct-2-ene-dicarboxylic acid]-1-ethanoyl}-L-valinyl-L-prolinyl-leucine methyl ester], for which the half-inhibitory concentration (IC50) was 18000 nM. With `COC(=O)/C=C/CC[C@H](NC(C)=O)C(=O)N[C@@H](CCC(N)=O)C(=O)N[C@@H](CCC(=O)O)C(=O)N[C@@H](C)C(=O)OC` [Compound 10, N^α-Acetyl-{[(E)-(L)-6-amino-hept-2-ene-dicarboxylic acid]-1-methanoyl}-L-glutaminyl-L-glutamyl-L-alanine methyl ester], the IC50 turned out to be 330 nM.

In the case of `COC(=O)/C=C/CC[C@H](NC(C)=O)C(=O)N[C@@H](CCC(N)=O)C(=O)N[C@@H](CCC(=O)O)C(=O)OC` [Compound 11, N^α-acetyl-{[(E)-(L)-6-amino-hept-2-ene-dicarboxylic acid]-1-methanoyl}-L-glutaminyl-L-glutamyl methyl ester], the IC50 was determined as 2100 nM. The same measure, in the same setting: then `COC(=O)/C=C/CC[C@H](NC(=O)OCc1ccccc1)C(=O)N[C@@H](Cc1ccccc1)C(=O)N1CCC[C@H]1C(=O)N[C@@H](CC(C)C)C(=O)OC` [Compound 13, N^α-benzyloxycarbonyl-{[(E)-(L)-6-amino-hept-2-enedicarboxylic acid]-1-methanoyl}-L-phenylalaninyl-L-prolinyl-L-leucine methyl ester], with 1500 nM; and `COC(=O)/C=C/CC[C@H](NC(C)=O)C(=O)N[C@@H](Cc1ccc(F)cc1)C(=O)N1CCC[C@H]1C(=O)N[C@@H](CC(C)C)C(=O)OC` [Compound 14, N^α-acetyl-{[(E)-(L)-6-amino-hept-2-ene-dicarboxylic acid]-1-methanoyl}-L-(p-fluoro)-phenylalaninyl-L-prolinyl-L-leucine methyl ester], with 1100 nM. On the same count and under the same terms, then `COC(=O)/C=C/CC[C@H](NC(=O)OCc1ccccc1)C(=O)N[C@@H](Cc1ccc(F)cc1)C(=O)N1CCC[C@H]1C(=O)N[C@@H](CC(C)C)C(=O)OC` [Compound 15, N^α-benzyloxycarbonyl-{[(E)-(L)-6-amino-hept-2-ene-dicarboxylic acid]-1-methanoyl}-L-(p-fluoro)-phenylalaninyl-L-prolinyl-L-leucine methyl ester], with 880 nM. For `CCOC(=O)/C=C/CC[C@H](NC(=O)OCc1ccccc1)C(=O)N[C@@H](CCC(N)=O)C(=O)N1CCC[C@H]1C(=O)N[C@@H](Cc1ccc(O)cc1)C(=O)OC` [Compound 19, N^α-benzyloxycarbonyl-{[(E)-(L)-6-amino-hept-2-ene-dicarboxylic acid]-1-ethanoyl}-L-glutaminyl-L-proline-L-tyrosine methyl ester] (Cbz-[Nle(5E-ene,6-CO2Et)]QPY-OMe), the IC50 was 2400 nM. For `CCOC(=O)/C=C/CC[C@H](NC(=O)OCc1ccccc1)C(=O)N[C@@H](CCC(N)=O)C(=O)N1CCC[C@H]1C(=O)N[C@@H](CC(C)C)C(=O)OC` [Compound 20, N^α-benzyloxycarbonyl-{[(E)-(L)-6-amino-hept-2-ene-dicarboxylic acid]-1-ethanoyl}-L-glutaminyl-L-prolinyl-L-leucine methyl ester] (Cbz-[Nle(5E-ene,6-CO2Et)]QPL-OMe), the IC50 was found to be 2000 nM.

On to `CCOC(=O)C=CC(=O)CC[C@H](NC(C)=O)C(=O)N[C@@H](CCC(N)=O)C(=O)N1CCC[C@H]1C(=O)N[C@@H](CC(C)C)C(=O)OC` [Compound 22, N^α-acetyl-{[L-7-Amino-4-oxo-oct-2-ene-dicarboxylic acid]-1-ethanoyl}-L-glutaminyl-L-prolinyl-L-leucine methyl ester], for which the IC50 came out at 70 nM. The same measure, in the same setting: the result for `COC(=O)[C@H](CC(C)C)NC(=O)[C@@H]1Cc2ccccc2CN1C(=O)[C@H](CCC(N)=O)NC(=O)[C@H](CC/C=C/C(=O)OCc1ccccc1)NC(=O)[C@@H]1CCCN1C(=O)[C@H](CCC(N)=O)NC(=O)[C@@H]1CCCN1C(=O)OCc1ccccc1` [Compound 41] (Cbz-PQP[X7]Q[Tic]L-OMe) reads 215 nM; that for `CC(=O)NCCC(=O)N1CCCC(C(=O)C(CC/C=C/C(=O)OC(C)C)N2Cc3nc[nH]c3CC2C(=O)NC(CNC(N)=O)C(=O)NC(CC(C)C)C(=O)N2CCCC2C(=O)NC(Cc2ccc(Oc3ccc(O)cc3)cc2)C(=O)O)C1` (centres unmarked) [Compound 42], 4000 nM. Still for that read-out and setting: then “N^α-(2-fluorobenzoyl)-{[L-7-amino-4-oxo-oct-2-ene-dicarboxylic acid]-1-methanoyl}-L-valinyl-L-4-fluoroprolinyl-leucine isopropyl ester [Compound 24]”, with 8000 nM. In the case of “N^α-(5-methylisoxazol-3-carbonyl)-{[L-7-amino-4-oxo-oct-2-ene-dicarboxylic acid]-1-isopropanoyl}-L-valinyl-L-prolinyl-leucine methyl ester [Compound 23]”, the IC50 came to 56 nM. On to “N^α-acetyl-{[(E)-(L)-6-Amino-hept-2-ene dicarboxylic acid]-1-methanoyl}-L-phenylalaninyl-L-prolinyl-L-leucine methyl ester [Compound 12]”, for which the IC50 amounted to 1800 nM. Still for that read-out and setting: the result for “N^α-benzyloxycarbonyl-{[(E)-(L)-6-amino-hept-2-ene-dicarboxylic acid]-1-ethanoyl}-L-leucinyl-L-prolinyl-L-glutamine methyl ester [Compound 21]” reads 3200 nM; that for “[(E)-(L)-6-(2-Oxo-pyrrolidon-1-yl)hept-2-ene-dicarboxylic acid 1-ethanoyl]-L-valinyl-L-homoprolinyl-L-leucine methyl ester [Compound 16]”, 22000 nM; that for “[(E)-(L)-6-(2-oxo-pyrrolidon-1-yl)-hept-2-ene-dicarboxylic acid-1-ethanoyl]-L-cyclohexylglycinyl-L-homoprolinyl-L-leucine methyl ester [Compound 17]”, 35000 nM. For the molecule “[(E)-(L)-6-(2-oxo-pyrrolidon-1-yl)-hept-2-ene-dicarboxylic acid-1-ethanoyl]-L-cyclohexylglycinyl-L-prolinyl-L-leucine methyl ester [Compound 18]”, the half-maximal inhibitory concentration (IC50) came out at 28000 nM.

The test is the same for the next values; noted with them: Table 2; 5 min preincubation, 37° C.
Regarding `COC(=O)C(CC(C)C)NC(=O)C1CCCN1C(=O)C(CCC(N)=O)NC(=O)C(CCC=CC#N)NC(=O)OCc1ccccc1` [Compound 3.2.11, N^α-benzyloxycarbonyl)-[(Z)-(L)-2-amino-6-cyano-hex-5-ene-dicarboxylic acid]-L-glutaminyl-L-prolinyl-L-leucine methyl ester], the IC50 was determined as 43000 nM. Same read-out and setting: the result for “N^α-benzyloxycarbonyl)-[(Z)-(L)-2-amino-7-oxo-oct-5-ene-dicarboxylic acid]-L-glutaminyl-L-prolinyl-L-leucine methyl ester [Compound 3.2.10]” reads 56000 nM.
